# According to US20260374773A1, “MULTI-CYCLIC IRAK AND FLT3 INHIBITING COMPOUNDS AND USES THEREOF” (CHILDREN'S HOSPITAL MEDICAL CENTER, priority 2022, published 2026):
# Test system: THP1 cells
# Assay: Combination drug screening with venetoclax, Cell Titer Glo, THP1
# Assay type: cell-based
# Settings: compound 0-0.1 μM, venetoclax 0-20 μM, 10 × 10, 48 h, negative = synergy
# Method: Combination drug therapy has the potential to produce enhanced effects with lower side effects not obtained using either agent alone, or beyond the additive effect of the different concentrations of the two different agents. To determine whether enhanced effects are observed in different drug combinations, combination drug screening was performed as previously described (Mathews-Griner, L. A. et al., Proc. Nat. Acad. Sci., 2014, 111:2349-2354; Lin, G. L. et al., Sci. Trans. Med., 2019, 11: eaaw0064). Briefly, 10 nL of compounds were acoustically dispensed into 1536-well white polystyrene tissue culture-treated plates with an Echo 550 acoustic liquid handler (Labcyte). Cells were then added to compound-containing plates at a density of 500-cells/well in 5 μL of medium. A 10-point custom concentration range was used for all listed drugs in a 10×10 matrix. Plates were incubated for 48 hours at standard incubator conditions covered by a stainless steel gasketed lid to prevent evaporation. 48 hours post compound addition, 3 μL of Cell Titer Glo (Promega) were added to each well and plates were incubated at room temperature for 15 minutes with the stainless-steel lid in place. Luminescence readings were taken using a Viewlux imager (PerkinElmer) with a 2 second exposure time per plate.
# Each compound was studied in combination with venetoclax at two concentration ranges of compound and venetoclax, respectively (for a total of 4 combination dose-response curves). The dose combinations that yielded the optimal synergy score, measured as excess HSA, which are reported in Tables 23 and 24 for the FLT3 mutant cell line MOLM14 (D835Y) and the FLT3 WT cell line THP1, respectively.
# Table 24 provides combination outcomes for representative compounds with venetoclax in the Cell Titer Glo assay in THP1 (FLT3 wild type) cells at 48 hours. The table provides relative excess HSA values for compounds of the disclosure used in combination with venetoclax compared to gilteritinib hemifumarate used in combination with venetoclax. A negative excess HSA score illustrates that the drug combination is better than either drug alone, wherein greater synergy is observed at larger negative values of the excess HSA score.
# Excess HSA is a measure of synergy vs. additivity or antagonism, wherein a negative excess HSA value is indicative of synergy. More information on excess HSA scores can be found in Vlot, Anna H. C. et al., Drug Discovery Today, 2019, 24(12):2286-2298. […] However, different methodologies may yield different numerical scores, and different definitions of what constitutes a deviation from mere additivity vs true drug synergy. The large negative excess HSA values provided in Tables 23 and 24 illustrate that multiple members of this structural class synergize with venetoclax. The degree to which combination therapy has to potential to produce enhanced effects with lower side effects not obtained using either agent alone, or beyond the additive effect of the different concentrations of the two different agents depends on the nature of the drugs used in the combination, and the specific doses/concentrations at which they are ultimately used in the therapeutic regimen. A negative excess HSA score illustrates that the drug combination is better than either drug alone (at the concentrations being studied). […] However, the utility in certain drug combinations vs. others should not be distinguished based on cutoffs between excess HSA scores, because the score itself is only a relative indicator that is completely dependent on experimental design and is not an absolute number. Furthermore, the concept of what constitutes clinically meaningful drug synergy is something that is still being debated, not only between pharmacologists and physicians, but amongst pharmacologists themselves. […]
row,SMILES,Excess HSA
1,"COc1cn2ncc(-c3nc(N[C@@H]4CCCNC4)ccc3F)c2nc1C1CC1 [Compound 2, (R)-6-(5-cyclopropyl-6-methoxypyrazolo[1,5-a]pyrimidin-3-yl)-5-fluoro-N-(piperidin-3-yl)pyridin-2-amine]",−990.8
2,"COc1cn2ncc(-c3nc(N[C@@H]4CCCNC4)ncc3F)c2nc1C1CC1 [Compound 14a, (R)-4-(5-cyclopropyl-6-methoxypyrazolo[1,5-a]pyrimidin-3-yl)-5-fluoro-N-(piperidin-3-yl)pyrimidin-2-amine]",−1210

# Same assay, conditions: compound 0-10 μM, venetoclax 0-2 μM, 10 × 10, 48 h, negative = synergy
row,SMILES,Excess HSA
1,"COc1cn2ncc(-c3ccnc(N[C@H]4CNCC[C@@H]4F)n3)c2nc1C(C)(C)O [Compound 3a, 2-(3-(2-(((3S,4S)-4-fluoropiperidin-3-yl)amino)pyrimidin-4-yl)-6-methoxypyrazolo[1,5-a]pyrimidin-5-yl)propan-2-ol]",−1645
2,"COc1cn2ncc(-c3nc(N[C@H]4CNCC[C@@H]4F)ncc3F)c2nc1C(C)(C)O [Compound 6a, 2-(3-(5-fluoro-2-(((3S,4S)-4-fluoropiperidin-3-yl)amino)pyrimidin-4-yl)-6-methoxypyrazolo[1,5-a]pyrimidin-5-yl)propan-2-ol]",−786.4
3,"COc1cn2ncc(-c3nc(N[C@H]4CNCC[C@@H]4F)ncc3F)c2nc1C1CC1 [Compound 15a, 4-(5-cyclopropyl-6-methoxypyrazolo[1,5-a]pyrimidin-3-yl)-5-fluoro-N-((3S,4S)-4-fluoropiperidin-3-yl)pyrimidin-2-amine]",−861.1
4,"COc1cn2ncc(-c3nc(N[C@H]4CNCC[C@@H]4F)c(F)cc3F)c2nc1C1CC1 [Compound 22, 6-(5-cyclopropyl-6-methoxypyrazolo[1,5-a]pyrimidin-3-yl)-3,5-difluoro-N-((3S,4S)-4-fluoropiperidin-3-yl)pyridin-2-amine]",−850.4

# Same assay, conditions: compound 0-10 μM, venetoclax 0-20 μM, 10 × 10, 48 h, negative = synergy
row,SMILES,Excess HSA
1,"COc1cn2ncc(-c3ccnc(N[C@H]4CNCC[C@@H]4F)n3)c2nc1C1CC1 [Compound 7a, 4-(5-cyclopropyl-6-methoxypyrazolo[1,5-a]pyrimidin-3-yl)-N-((3S,4S)-4-fluoropiperidin-3-yl)pyrimidin-2-amine]",−1947
2,"COc1cn2ncc(-c3cncc(N[C@H]4CNCC[C@@H]4F)n3)c2nc1C1CC1 [Compound 12a, 6-(5-cyclopropyl-6-methoxypyrazolo[1,5-a]pyrimidin-3-yl)-N-((3S,4S)-4-fluoropiperidin-3-yl)pyrazin-2-amine]",−1869
3,"COc1cn2ncc(-c3nc(N[C@H]4CNC[C@@H]4F)c(F)cc3F)c2nc1C1CC1 [Compound 24, 6-(5-cyclopropyl-6-methoxypyrazolo[1,5-a]pyrimidin-3-yl)-3,5-difluoro-N-((3S,4S)-4-fluoropyrrolidin-3-yl)pyridin-2-amine]",−1766
